Columns and labels:
[1] = target: human activated kallikrein enzyme (Homo sapiens, UniProt P03952); experiment: Inhibition of activated plasma kallikrein, fluorogenic peptide substrate (PFR-AMC) assay, 500 pM enzyme format; format: biochemical; settings: 500 pM activated kallikrein, 300 uM PFR-AMC, 30 min preincubation, 10 min reaction, room temperature; read-out: Primary Dose Response Assay: Average EC50
Outline: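 500 pM enzyme preincubated 30 min at room temperature with inhibitor in 20 mM Tris pH 7.5, 150 mM NaCl, 1 mM EDTA, 0.1% PEG-400, 0.1% Triton X-100. Reaction started with 300 uM PFR-AMC and run 10 min at room temperature. Fluorescence read at 380 nm excitation/460 nm emission.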

plasma kallikrein = target: T1, plasma kallikrein (Homo sapiens, UniProt P03952); experiment: Neat human plasma assay: contact pathway-activated (FXIIa) plasma, PFR-AMC substrate; format: biochemical; settings: citrated human plasma (78% final), 10 nM human FXIIa, 100 μM PFR-AMC, room temperature
T1 construct: from tissue; host or cells: sodium citrate collected human plasma (78% final)
Description: To analyze inhibition of plasma kallikrein in an ex vivo setting, the potency of compounds was measure in contact pathway-activated plasma assays. In a fluorogenic peptide substrate assay, test compounds dissolved in DMSO were added to sodium citrate collected human or rat plasma in a 96-well microplate. Alternatively, citrated plasma was collected from rats administered the compounds orally or by IV. 10 nM of human FXIIa (Enzyme Research Laboratories) diluted in pKal buffer (20 mM Tris-HCl, pH 7.5, 150 mM NaCl, 1 mM EDTA, 0.1% PEG-8000, and 0.1% Triton X-100) was added to the plasma, followed by the 100 μM of the profluorescent, synthetic plasma kallikrein substrate PFR-AMC (also diluted in pKal buffer). Final plasma concentration in the reaction was 78%. Fluorescence was immediately monitored by excitation/emission wavelengths of 360 nm/480 nm respectively over a period of 5 minutes in a microplate reader. The resulting linear increase in fluorescence emission (reflecting pKal proteolysis of PFR-AMC substrate) was fit to extract a proteolytic rate (fluorescent units over time), and this rate was subsequently plotted against compound inhibitor concentration. Resulting plots were fit to a standard 4-parameter IC50/IC90 equation to determine min/max values, IC50/90, and slope. All experimental steps were performed at room temperature.

T1 sequence (P03952 391-638 limits assumed): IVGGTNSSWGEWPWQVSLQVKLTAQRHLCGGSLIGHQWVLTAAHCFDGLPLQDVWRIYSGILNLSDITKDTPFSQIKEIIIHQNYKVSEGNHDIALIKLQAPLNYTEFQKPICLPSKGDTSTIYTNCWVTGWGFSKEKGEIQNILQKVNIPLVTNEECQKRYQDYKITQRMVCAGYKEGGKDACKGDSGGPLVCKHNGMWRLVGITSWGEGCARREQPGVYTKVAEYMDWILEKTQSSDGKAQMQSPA
T1 sequence (P03952 20-390 partner limits assumed): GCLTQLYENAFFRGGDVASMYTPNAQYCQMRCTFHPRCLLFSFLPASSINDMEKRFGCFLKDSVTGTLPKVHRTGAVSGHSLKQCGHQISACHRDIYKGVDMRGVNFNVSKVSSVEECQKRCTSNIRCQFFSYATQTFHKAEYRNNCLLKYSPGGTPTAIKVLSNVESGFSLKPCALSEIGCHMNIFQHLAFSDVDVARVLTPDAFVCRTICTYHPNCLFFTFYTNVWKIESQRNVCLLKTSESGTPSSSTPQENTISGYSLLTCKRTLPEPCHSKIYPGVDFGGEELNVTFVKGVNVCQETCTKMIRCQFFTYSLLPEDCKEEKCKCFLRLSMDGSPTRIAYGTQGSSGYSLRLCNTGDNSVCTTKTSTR
Sequence of human activated kallikrein enzyme (P03952 391-638 limits assumed): as the sequence (P03952 391-638 limits assumed) above
Sequence of human activated kallikrein enzyme (P03952 20-390 partner limits assumed): as the sequence (P03952 20-390 partner limits assumed) above

Structure (SMILES)	EC50 [1]	IC90 (plasma kallikrein)
Cc1ccnc([C@H]2C[C@@H]2c2ncc3ccc(NCc4cn5cc(C6CC6)cc(N6CC(=O)N(C)C6=O)c5n4)cc3n2)n1 (racemic) [Example 60, rac-1-(6-cyclopropyl-2-(((2-((1S*,2S*)-2-(4-methylpyrimidin-2-yl)cyclopropyl)quinazolin-7-yl)amino)methyl)imidazo[1,2-a]pyridin-8-yl)-3-methylimidazolidine-2,4-dione]	1 to 10 nM	10000 to 22000 nM
COc1cc([C@H]2C[C@@H]2c2nccc(C)n2)nc2cc(NCc3cn4cc(C5CC5)cc(N5CC(=O)N(C)C5=O)c4n3)ccc12 (racemic) [Example 21, rac-1-(6-cyclopropyl-2-(((4-methoxy-2-((1S*,2S*)-2-(4-methylpyrimidin-2-yl)cyclopropyl)quinolin-7-yl)amino)methyl)imidazo[1,2-a]pyridin-8-yl)-3-methylimidazolidine-2,4-dione]	≤ 1 nM	1500 to 10000 nM
Cc1ccnc([C@H]2C[C@@H]2c2cc(N3CCOCC3)c3ccc(NCc4cn5cc(C6CC6)cc(N6CC(=O)N(C)C6=O)c5n4)cc3n2)n1 (racemic) [Example 40, rac-1-(6-cyclopropyl-2-((1S*,2S)-2-(4-methylpyrimidin-2-yl)cyclopropyl)-4-morpholinoquinolin-7-yl)amino)methyl)imidazo[1,2-a]pyridin-8-yl)-3-methylimidazolidine-2,4-dione]	≤ 1 nM	≤ 400 nM
Cc1ccnc([C@H]2C[C@@H]2c2cc(NCC(C)(C)O)c3ccc(NCc4cn5cc(C6CC6)cc(N6CC(=O)N(C)C6=O)c5n4)cc3n2)n1 [Example 38, 1-(6-cyclopropyl-2-(((4-((2-hydroxy-2-methylpropyl)amino)-2-((1S,2S)-2-(4-methylpyrimidin-2-yl)cyclopropyl)quinolin-7-yl)amino)methyl)imidazo[1,2-a]pyridin-8-yl)-3-methylimidazolidine-2,4-dione]	≤ 1 nM	≤ 400 nM
Cc1ccnc([C@H]2C[C@@H]2c2ccc3ccc(NCc4cn5cc(C6CC6)cc(N6CC(=O)N(C)C6=O)c5n4)cc3n2)n1 (racemic) [Example 57, rac-1-(6-cyclopropyl-2-(((2-((1S*,2S*)-2-(4-methylpyrimidin-2-yl)cyclopropyl)quinolin-7-yl)amino)methyl)imidazo[1,2-a]pyridin-8-yl)-3-methylimidazolidine-2,4-dione]	≤ 1 nM	1500 to 10000 nM
Cc1ccnc([C@H]2C[C@@H]2c2cc(N3CC4(COC4)C3)c3ccc(OCc4cc5cc(C6CC6)cc(N6CC(=O)N(C)C6=O)n5n4)cc3n2)n1 [Example 108, 1-(5-cyclopropyl-2-(((2-((1S,2S)-2-(4-methylpyrimidin-2-yl)cyclopropyl)-4-(2-oxa-6-azaspiro[3.3]heptan-6-yl)quinolin-7-yl)oxy)methyl)pyrazolo[1,5-a]pyridin-7-yl)-3-methyl imidazolidine-2,4-dione]	≤ 1 nM	≤ 400 nM
Cc1ccnc([C@H]2C[C@@H]2C2=NS(=O)(=O)c3ccc(NCc4cn5cc(C6CC6)ccc5n4)cc3N2)n1 (single isomer, unassigned) [Example 65]	≤ 1 nM	400 to 1500 nM
Cc1ccnc([C@H]2C[C@@H]2c2nc(=O)c3ccc(NCc4cn5cc(C6CC6)cc(N6CC(=O)N(C)C6=O)c5n4)cc3[nH]2)n1 (racemic) [Example 8, rac-1-(6-cyclopropyl-2-(((2-((1S*,2S*)-2-(4-methylpyrimidin-2-yl)cyclopropyl)-4-oxo-1,4-dihydroquinazolin-7-yl)amino)methyl)imidazo[1,2-a]pyridin-8-yl)-3-methylimidazolidine-2,4-dione]	≤ 1 nM	1500 to 10000 nM
Cc1ccnc([C@H]2C[C@@H]2c2ccc3c(C#N)cc(NCc4cn5cc(C6CC6)cc(N6CC(=O)N(C)C6=O)c5n4)cc3n2)n1 (racemic) [Example 82, rac-7-(((6-cyclopropyl-8-(3-methyl-2,4-dioxoimidazolidin-1-yl)imidazo[1,2-a]pyridin-2-yl)methyl)amino)-2-((1S*,2S*)-2-(4-methylpyrimidin-2-yl)cyclopropyl)quinoline-5-carbonitrile]	1 to 10 nM	1500 to 10000 nM
Cc1ccnc([C@H]2C[C@@H]2c2cc(=O)c3cnc(NCc4cn5cc(C6CC6)cc(N6CC(=O)N(C)C6=O)c5n4)cc3[nH]2)n1 (racemic) [Example 10, rac-1-(6-cyclopropyl-2-(((2-((1S*,2S*)-2-(4-methylpyrimidin-2-yl)cyclopropyl)-4-oxo-1,4-dihydro-1,6-naphthyridin-7-yl)amino)methyl)imidazo[1,2-a]pyridin-8-yl)-3-methylimidazolidine-2,4-dione]	≤ 1 nM	≤ 400 nM
COc1cc(NCc2cn3cc(C4CC4)cc(N4CC(=O)N(C)C4=O)c3n2)cc2nc([C@H]3C[C@@H]3c3nccc(C)n3)ccc12 [Example 28, 1-(6-cyclopropyl-2-(((5-methoxy-2-((1S,2S)-2-(4-methylpyrimidin-2-yl)cyclopropyl)quinolin-7-yl)amino)methyl)imidazo[1,2-a]pyridin-8-yl)-3-methylimidazolidine-2,4-dione]	≤ 1 nM	400 to 1500 nM
Cc1ccnc([C@H]2C[C@@H]2c2cc(N3CCN(C)CC3)c3ccc(NCc4cn5cc(C6CC6)cc(N6CC(=O)N(C)C6=O)c5n4)cc3n2)n1 [Example 39, 1-(6-cyclopropyl-2-(((4-(4-methylpiperazin-1-yl)-2-((1S,2S)-2-(4-methylpyrimidin-2-yl)cyclopropyl)quinolin-7-yl)amino)methyl)imidazo[1,2-a]pyridin-8-yl)-3-methylimidazolidine-2,4-dione]	≤ 1 nM	≤ 400 nM
Cc1ccnc([C@H]2C[C@@H]2C2=NS(=O)(=O)c3ccc(NC(C)c4cn5cc(C6CC6)ccc5n4)cc3N2)n1 (stereo partly drawn) [Example 87, 6-((1-(6-cyclopropylimidazo[1,2-a]pyridin-2-yl)ethyl)amino)-3-((1S,2S)-2-(4-methylpyrimidin-2-yl)cyclopropyl)-4H-benzo[e][1,2,4]thiadiazine 1,1-dioxide]	≤ 1 nM	400 to 1500 nM
Cc1ccnc([C@H]2C[C@@H]2C2=NS(=O)(=O)c3cc(Cl)c(NCc4cn5cc(C6CC6)ccc5n4)cc3N2)n1 (racemic) [Example 89, rac-7-chloro-6-(((6-cyclopropylimidazo[1,2-a]pyridin-2-yl)methyl)amino)-3-((1S*,2S*)-2-(4-methylpyrimidin-2-yl)cyclopropyl)-4H-benzo[e][1,2,4]thiadiazine 1,1-dioxide]	≤ 1 nM	1500 to 10000 nM
COc1cc2ccc([C@H]3C[C@@H]3c3nccc(C)n3)nc2cc1NCc1cn2cc(C3CC3)cc(N3CC(=O)N(C)C3=O)c2n1 (racemic) [Example 84, rac-1-(6-cyclopropyl-2-(((6-methoxy-2-((1S*,2S*)-2-(4-methylpyrimidin-2-yl)cyclopropyl)quinolin-7-yl)amino)methyl)imidazo[1,2-a]pyridin-8-yl)-3-methylimidazolidine-2,4-dione]	≤ 1 nM	1500 to 10000 nM
Cc1ccnc([C@H]2C[C@@H]2c2cc(N3CC4(COC4)C3)c3ccc(N[C@H](C)c4cn5cc(C6CC6)cc(N6CC(=O)N(C)C6=O)c5n4)cc3n2)n1 [Example 101, 1-(6-cyclopropyl-2-((R)-1-((2-((1S,2S)-2-(4-methylpyrimidin-2-yl)cyclopropyl)-4-(2-oxa-6-azaspiro[3.3]heptan-6-yl)quinolin-7-yl)amino)ethyl)imidazo[1,2-a]pyridin-8-yl)-3-methylimidazolidine-2,4-dione]	≤ 1 nM	≤ 400 nM

From patent US20240199613A1 (TAKEDA PHARMACEUTICAL COMPANY LIMITED, priority 2021, published 2024)
